The values below come from patent EP2150534B1, “ISOQUINOLINONE DERIVATIVES AS NK3 ANTAGONISTS” (H. Lundbeck A/S, priority 2007, dated 2008).

Experiment [1] deals with T1, human NK3 receptor (Homo sapiens, UniProt P29371).
T1 construct: expressed in transfected cells; membranes prepared from them
T1 sequence (P29371 1-465): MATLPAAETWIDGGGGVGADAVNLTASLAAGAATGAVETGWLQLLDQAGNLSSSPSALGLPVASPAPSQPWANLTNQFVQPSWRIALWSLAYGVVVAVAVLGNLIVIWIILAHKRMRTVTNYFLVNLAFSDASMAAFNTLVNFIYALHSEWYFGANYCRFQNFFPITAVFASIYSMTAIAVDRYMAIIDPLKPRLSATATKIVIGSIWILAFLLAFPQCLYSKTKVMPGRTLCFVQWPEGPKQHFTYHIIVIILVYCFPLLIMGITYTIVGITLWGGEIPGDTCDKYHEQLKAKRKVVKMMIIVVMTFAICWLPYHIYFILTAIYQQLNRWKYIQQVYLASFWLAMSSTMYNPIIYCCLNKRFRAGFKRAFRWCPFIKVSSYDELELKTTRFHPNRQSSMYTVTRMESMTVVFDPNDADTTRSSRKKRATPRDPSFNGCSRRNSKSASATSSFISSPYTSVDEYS
Nature of the experiment: NK3 receptor efficacy and potency assay (FLIPR Calcium 4 assay, BHK cells; agonist and antagonist mode versus NKB). In kind it is cell-based. To be noted: read-out: Potency cIC50. The protocol: BHK cells stably expressing the human NK3 receptor were seeded in 100 µl media in black walled clear-base 96-wells plates (Costar) aiming at a confluency of 95-100% at the day of assay. The assay was performed according to the FLIPR Calcium 4 Assay kit (Molecular Devices). At the day of the assay, the media was removed and the cells were washed once with the HBSS buffer (Hanks BSS buffer, pH 7,4 containing 20 mM Hepes) before 100 µl of a solution of the calcium assay reagent dissolved in the HBSS buffer containing 2,5 mM probinicid was added to the cells. The plates were incubated for 60 min at 34°C, 10% CO2 before use in the FLIPR for examination of fluorescence.
For efficacy and potency evaluation of compounds, these were diluted in HBSS buffer prior to test. For test of agonist activity, 25 µl of the diluted compound solution was added and the plate was analyzed for 5 minutes in the FLIPR. […] The plates were subsequently analyzed for 5 minutes before the assay was terminated. The maximal increase in fluorescence over background following each ligand addition was determined.

For experiment [2], the target named is T1, human NK3 receptor. The experiment can be described thus: NK3 receptor binding assay (SPA-based competition binding with 125I-NKB, membranes of BHK cells). The protocol: Membranepreparation: BHK cells stably expressing the human NK3 receptor were seeded in harvesting plates in Dulbeccos MEM containing GlutaMax (862 mg/l), 1 mM sodium pyruvate, 10% fetal calf serum, 1% Pen/Strep, I mg/ml G418 and were grown at 34 °C in a humidified atmosphere containing 10% CO2. To increase receptor expression, 10 µM trichotatin A was added to the media 24 hours before harvest of the cells at a confluency of app 90%. Prior to the harvesting, the cells were washed twice with PBS without Mg^2+ og Ca^2+ and subsequently scrapped of in 10 ml PBS pr harvesting plate. The cells suspension were centrifuged at 1500xG in three minutes before resuspension in 15 mM Tris-HCl pH 7,5 buffer containing 2 mM MgCl2; 0,3 mM EDTA and 1 mM EGTA (buffer A). The cell suspention was homogenised and subsequently centrifuged at 40000xG in 30 minutes. The membrane-pellet was resuspended in buffer A containing 250 mM sucrose, alliquoted and stored at - 80°C.
Affinity assay description: The assay was performed as a SPA-based competition-binding assay in a 50 mM Tris pH 7.4 assay buffer containing 120 mM NaCl, 3 mM MnCl2, 40 µg/ml bacitracin, 2 µg/ml Chymostatin, 1 µg/ml Phosphoramidon and 4 µg/ml Leupeptin. App 0.02 nM ^125I-NKB was mixed with test compounds before addition of 4 µg of the homogenised NK3 membrane preparation and 0,025 mg SPA beads in a total volume of 60 µl. The assay plate was subsequently under agitation incubated for 90 min at RT. The plate was centrifugated 10 minutes at 500xG and counted in a topcounter 5 minuttes pr well.
The non-specific binding constituted app 5 % of the total binding.
Data points were expressed in percent of the specific binding of ^125I-NKB and the IC50 values (concentration causing 50 percent inhibition of ^125I-NKB specific binding) were determined by non-linear regression analysis using a sigmoidal variable slope curve fitting. The dissociation constant (Ki) were calculated from the Cheng Prusoff equation (Ki = IG50/(1+(L/KD))), where the concentration of free radioligand L is approximated to the concentration of added ^125I-NKB in the assay (app 0,02 nM).
The KD of ^125I-NKB was determined to be 0,7 nM from three independent saturation assays each performed with duplicate determinations. Bmax was app 2 pmol/mg.

[3] abbreviates: table of Example 10, affinity obtained as described in Example 9, read-out: Affinity Ki.
Setting [4] is: Ki for the NK3 receptor, table of Example 9, 125I-NKB competition binding, read-out: Ki.

Like-named read-outs stand apart in the source and are kept apart here.

The term Ki denotes a dissociation constant, usually derived from enzyme kinetics or from competition with a known ligand. In the case of `Cc1c(C(=O)N[C@H](c2cccc(F)c2)C2CCC2)c2cccc(Cl)c2c(=O)n1-c1ccccc1` [Example 1bh, 8-Chloro-3-methyl-1-oxo-2-phenyl-1,2-dihydro-isoquinoline-4-carboxylic acid [(S)-cyclobutyl-(3-fluoro-phenyl)-methyl]-amide], the IC50 in experiment [1] was determined as 81 nM. Besides, the Ki in experiment [2] (setting [3]) is 21 nM.

On to `Cc1c(C(=O)N[C@@H](c2cccc(F)c2)C2CC2)c2cccc(Cl)c2c(=O)n1-c1ccccc1` [Example 1bl, 8-Chloro-3-methyl-1-oxo-2-phenyl-1,2-dihydro-isoquinoline-4-carboylic acid [(R)-cyclopropyl-(3-fluoro-phenyl)-methyl]-amide], for which the Ki in experiment [2] (setting [3]) was found to be 470 nM.

Consider `Cc1c(C(=O)N[C@H](c2ccccc2)C2CCC2)c2cccc(Cl)c2c(=O)n1-c1ccccc1` [Example 1bn, 8-Chloro-3-methyl-1-oxo-2-phenyl-1,2-dihydro-isoquinoline-4-carboxylic acid ((S)cyclobutyl-phenyl-methyl)-amide], for which the IC50 in experiment [1] was 23 nM. In experiment [2] (setting [3]), the Ki is 23 nM.

As to `CC[C@H](NC(=O)c1c(C)n(-c2ccccc2)c(=O)c2c(Cl)cccc12)c1ccccc1` [Example 1i, 8-Chloro-3-methyl-1-oxo-2-phenyl-1,2-dihydro-isoquinoline-4-carboxylic acid ((S)-1-phenyl-propyl)-amide], in experiment [1], the IC50 amounted to 130 nM. Also, the inhibition constant Ki in experiment [2] (setting [3]) was 41 nM.

Turning to `Cc1c(C(=O)N[C@H](c2cccc(F)c2)C2CC2)c2cccc(Cl)c2c(=O)n1-c1ccccc1` [Example 1t, 8-Chloro-3-methyl-1-oxo-2-phenyl-1,2-dihydro-isoquinoline-4-carboxylic acid [(S)-cyclopropyl-(3-fluoro-phenyl)-methyl]-amide], in experiment [1], the IC50 stood at 44 nM. In addition, in experiment [2] (setting [3]), the Ki was 27 nM.

As for `CC[C@H](NC(=O)c1c(CN(C)C)n(-c2ccccc2)c(=O)c2ccccc12)c1ccccc1` [Example 2a, 3-Dimethylarrtinomethyl-1-oxo-2 phenyl-1,2-dihydro-isoquinoline-4-carboxylic acid ((S)-1-phenyl-propyl)-amide], the Ki in experiment [2] (setting [4]) came out at 180 nM.

`CC[C@H](NC(=O)c1c(CN2CCCCCC2)n(-c2ccccc2)c(=O)c2ccccc12)c1ccccc1` [Example 2ah, 3-Azepan-1-ylmethyl-1-oxo-2-phenyl-1,2-dihydro-isoquinoline-4-carboxylic acid ((S)-1-phenyl-propyl)-amide]: the IC50 in experiment [1] is 360 nM. Moreover, the Ki in experiment [2] (setting [3]) was 290 nM.

In the case of `CC[C@H](NC(=O)c1c(CN2CCN(CCN3CCOCC3)CC2)n(-c2ccccc2)c(=O)c2ccccc12)c1ccccc1` [Example 2bm, 3-[4-(2-Morpholin-4-yl-ethyl)-piperazin-1-ylmethyl]-1-oxo-2-phenyl-1,2-dihydro-isoquinoline-4-carboxylic acid ((S)-1-phenyl-propyl)-amide], the IC50 in experiment [1] is 14 nM. Moreover, the Ki in experiment [2] (setting [4]) amounted to 8.2 nM; in experiment [2] (setting [3]), 8.8 nM.

As for `CC[C@H](NC(=O)c1c(CN2CCN(CCN3CCCC3)CC2)n(-c2ccccc2)c(=O)c2ccccc12)c1ccccc1` [Example 2bq, 1-Oxo-2-phenyl-3-[4-(2-pyrrolidin-1-yl-ethyl)-pipcrazin-1-ylmethyl]-1,2-dihydro-isoquinolinc-4-carboxylic acid ((S)-1-phenyl-propyl)-amide], the IC50 in experiment [1] is 220 nM. Besides, the Ki in experiment [2] (setting [3]) came out at 160 nM.

As to `CC[C@H](NC(=O)c1c(CN2CCC(CCN3CCOCC3)CC2)n(-c2ccccc2)c(=O)c2ccccc12)c1ccccc1` [Example 2cw, 3-[4-(2-Morpholin-4-yl-ethyl)-piperidin-1-ylmethyl]-1-oxo-2-phenyl-1,2-dihydro-isoquinoline-4-carboxylic acid ((S)-1-phenyl-propyl)-amide], in experiment [1], the IC50 was found to be 45 nM. For the same compound, in experiment [2] (setting [3]), the Ki was 8.4 nM.

For `CC[C@H](NC(=O)c1c(CN2CCNC(=O)C2)n(-c2ccccc2)c(=O)c2ccccc12)c1ccccc1` [Example 2df, 1-Oxo-3-(3-oxo-piperazin-1-ylmethyl)-2-phenyl-1,2-dihydro-isoquinoline-4-carboxylic acid ((S)-1-phenyl-propyl)-amide], the IC50 in experiment [1] was 450 nM. In experiment [2] (setting [3]), the Ki came to 340 nM.

Turning to `CC[C@H](NC(=O)c1c(CNCC2CC2)n(-c2ccccc2)c(=O)c2ccccc12)c1ccccc1` [Example 2e, 3-[(Cyclopropylmethyl-amino)-methyl]-1-oxo-2-phenyl-1,2-dihydro-isoquinoline-4-carboxylic acid ((S)-1-phenyl-propyl)-amide], in experiment [1], the IC50 is 470 nM. In addition, the Ki in experiment [2] (setting [3]) amounted to 330 nM.

Consider `CC[C@H](NC(=O)c1c(CNC(C)(C)C)n(-c2ccccc2)c(=O)c2ccccc12)c1ccccc1` [Example 2ec, 3-(tert-Butylamino-methyl)-1-oxo-2-phenyl-1,2-dihydro-isoquinoline-4-carboxylic acid ((S)-1-phenyl-propyl)-amide], for which the IC50 in experiment [1] stood at 520 nM. For the same compound, in experiment [2] (setting [3]), the Ki is 210 nM.

Turning to `CCC(CO)NCc1c(C(=O)N[C@@H](CC)c2ccccc2)c2ccccc2c(=O)n1-c1ccccc1` (stereo partly drawn) [Example 2eg, 3-[(1-Hydroxymethyl-propylamino)-methyl]-1-oxo-2-phenyl-1,2-dihydro-isoquinoline-4-carboxylic acid ((S)-1-phenyl-propyl)-amide], the IC50 in experiment [1] was found to be 610 nM. Also, in experiment [2] (setting [3]), the Ki was 240 nM.

`CC[C@H](NC(=O)c1c(CN2CC[C@H](O)C2)n(-c2ccccc2)c(=O)c2ccccc12)c1ccccc1` [Example 2es, 3-((S)-3-Hydroxy-pyrrolidin-1-ylmethyl)-1-oxo-2-phenyl-1,2-dihydro-isoquinoline-4-carboxylic acid ((S)-1-phenyl-propyl)-amide]: the IC50 in experiment [1] stood at 240 nM. Besides, in experiment [2] (setting [3]), the Ki amounted to 140 nM.

In the case of `CC[C@H](NC(=O)c1c(CN2CCC2)n(-c2ccccc2)c(=O)c2ccccc12)c1ccccc1` [Example 2ey, 3-Azetidin-1-ylmethyl-1-oxo-2-phenyl-1,2-dihydro-isoquinoline-4-carboxylic acid ((S)-1-phenyl-propyl)-amide], the IC50 in experiment [1] stood at 480 nM. In addition, the Ki in experiment [2] (setting [3]) came out at 240 nM.

As for `CC[C@H](NC(=O)c1c(CN2CCN(c3ccc4ncccc4c3)CC2)n(-c2ccccc2)c(=O)c2ccccc12)c1ccccc1` [Example 2fm, 1-Oxo-2-phenyl-3-(4-quinolin-6-yl-piperazin-1-ylmethyl)-1,2-dihydro-isoquinoline-4-carboxylic acid ((S)-1-phenyl-propyl)-amide], the IC50 in experiment [1] is 140 nM. Moreover, the Ki in experiment [2] (setting [3]) turned out to be 33 nM.

Take `Cc1c(C(=O)NN(c2ccccc2)c2ccccc2)c2ccccc2c(=O)n1-c1ccccc1` [Example 5a, 3-Methyl-1-oxo-2 phenyl-1,2-dihydro-isoquinoline-4-carboxylic acid N',N'-diphenyl-hydrazide]: in experiment [2] (setting [4]), the Ki worked out at 55 nM.
